From patent publication US11642392B2, “Therapeutic agent of uremia containing alarin as the main ingredient” (JU TIDE CO., LTD., priority 2017, dated 2023)

Tests used:
[1] = system: Cisplatin-induced uremia in the Sprague-Dawley rat model; details: single dose of 10 μg/1 mL/head and 20 μg/1 mL/head IV, vs control group of excipient
Experimental: (§1) The intravenous administration was done by fixing an animal into a correction frame, and slowly injecting at a rate of within 1 mL/min through the micro vein using a syringe equipped with 26 gauges needle. The intraperitoneal administration was performed by fixing the animal by a transdermal skin fixation method and intraperitoneally injecting using a syringe equipped with 26 gauges needle.
Serum obtained from the centrifugation was tested for blood urea nitrogen (BUN) and […] (CRE) using a blood biochemical analyzer (7180 Hitachi, Japan).

[2] = system: Cisplatin-induced uremia in the Sprague-Dawley rat model
Experimental: as §1
Finally, animals were inhaled with ether on an necropsy day to anesthetize and euthanize, and kidneys were extracted and fixed in a 10% neutral buffered formalin solution, and the fixed tissues were cut, dehydrated, paraffin embedded and hematoxylin & eosin stained to make a specimens for histopathological examination after these histological treatment. And then, the obtained specimen is subjected to speculum using an optical microscope (Olympus BX53, Japan).

## alarin (human) trifluoroacetate salt [test substance]
[1]
  blood biochemical level: tendency to improve
[2]; 10 and 20 μg/1 mL/head IV single dose, across doses
  histopathological examination results, lesion level: dose-related change trend and significant changes in lesion level
[2]; high dose group (20 μg/1 mL/head IV, single dose), necropsy Day 7, H&E, vs control group
  level of lesion (histopathological examination of kidney): significantly lower
